Here are results for one molecule from PMC9917360, “Novel 1,4-Dihydropyridine Derivatives as Mineralocorticoid Receptor Antagonists” (International Journal of Molecular Sciences, 2023).

For assay [1], the target named is T1, human AR (Homo sapiens, UniProt P10275).
T1 construct: Plasmid pCMV-FLAG-hAR, expressing full-length human AR; host or cells: COS-7
T1 sequence (P10275 1-920): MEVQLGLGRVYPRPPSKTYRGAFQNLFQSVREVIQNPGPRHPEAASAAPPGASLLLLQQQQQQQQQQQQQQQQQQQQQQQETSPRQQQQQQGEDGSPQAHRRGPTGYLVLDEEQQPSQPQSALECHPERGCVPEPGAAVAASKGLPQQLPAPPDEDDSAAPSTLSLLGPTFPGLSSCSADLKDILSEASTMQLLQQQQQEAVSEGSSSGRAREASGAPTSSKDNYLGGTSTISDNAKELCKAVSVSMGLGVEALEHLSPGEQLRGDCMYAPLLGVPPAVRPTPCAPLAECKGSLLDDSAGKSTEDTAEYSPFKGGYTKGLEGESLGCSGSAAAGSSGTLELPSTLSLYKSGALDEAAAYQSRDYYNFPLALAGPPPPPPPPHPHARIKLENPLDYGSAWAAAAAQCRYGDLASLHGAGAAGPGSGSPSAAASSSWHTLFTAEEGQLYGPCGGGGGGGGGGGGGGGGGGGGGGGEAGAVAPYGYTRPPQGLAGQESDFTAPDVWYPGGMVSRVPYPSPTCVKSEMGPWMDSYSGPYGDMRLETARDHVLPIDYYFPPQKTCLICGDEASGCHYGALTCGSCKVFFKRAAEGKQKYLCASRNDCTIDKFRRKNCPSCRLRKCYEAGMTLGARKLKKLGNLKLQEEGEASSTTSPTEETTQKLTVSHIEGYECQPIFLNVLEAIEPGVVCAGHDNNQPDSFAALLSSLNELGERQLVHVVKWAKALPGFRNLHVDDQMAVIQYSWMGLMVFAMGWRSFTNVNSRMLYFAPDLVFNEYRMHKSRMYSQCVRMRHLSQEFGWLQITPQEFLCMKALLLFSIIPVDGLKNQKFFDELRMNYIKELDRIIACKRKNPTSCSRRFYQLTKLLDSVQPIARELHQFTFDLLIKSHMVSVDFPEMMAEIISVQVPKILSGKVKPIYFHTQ
In words: AR reporter gene transactivation assay in COS-7 cells. In kind it is cell-based. The note with it: 5 μM derivative, stimulation by 10 nM testosterone. On the procedure: (§1) Receptor transcriptional activity was assessed using a transactivation gene reporter assay, as described. Briefly, COS-7 cells were seeded on 96-well plates in DMEM supplemented with 10% charcoal-stripped FBS (Biowest, Nuaillé, France). Twenty-four hours after seeding, cells were transfected with pcDNA3-hMR, pcDNA3-hGR, or pCMV-FLAG-hAR in combination with pSG5-luc and pSG5-ren in a 5:4:1 proportion, respectively. […] After 2 h of incubation, cells were further treated with agonists (1 × 10^−8 M aldosterone; 1 × 10^−8 M testosterone or 0.5 × 10^−6 M cortisol) in the presence of each compound for 16 h. Assays using hMR included a control condition with 0.25 × 10^−6 M eplerenone. MR maximum and minimum activity were obtained in each assay using conditions with 1 × 10^−9 M aldosterone or vehicle (ethanol). Each condition was performed in three parallel wells. After treatments, firefly and Renilla luciferase activities were measured sequentially in the cell lysates using a commercially available kit (Dual-Glo; Promega, Madison, WI, USA). Receptor transcriptional activity was calculated as the ratio luc/ren. The activities in each condition were normalized to the activity obtained with vehicle or with agonist as indicated in each figure panel and are expressed a as percentage of the maximum value ± SD.

For assay [2], the target named is T2, human MR (hMR) (Homo sapiens, UniProt P08235).
T2 construct: expressed in transfected cells; host or cells: COS-7
T2 sequence (P08235 1-984): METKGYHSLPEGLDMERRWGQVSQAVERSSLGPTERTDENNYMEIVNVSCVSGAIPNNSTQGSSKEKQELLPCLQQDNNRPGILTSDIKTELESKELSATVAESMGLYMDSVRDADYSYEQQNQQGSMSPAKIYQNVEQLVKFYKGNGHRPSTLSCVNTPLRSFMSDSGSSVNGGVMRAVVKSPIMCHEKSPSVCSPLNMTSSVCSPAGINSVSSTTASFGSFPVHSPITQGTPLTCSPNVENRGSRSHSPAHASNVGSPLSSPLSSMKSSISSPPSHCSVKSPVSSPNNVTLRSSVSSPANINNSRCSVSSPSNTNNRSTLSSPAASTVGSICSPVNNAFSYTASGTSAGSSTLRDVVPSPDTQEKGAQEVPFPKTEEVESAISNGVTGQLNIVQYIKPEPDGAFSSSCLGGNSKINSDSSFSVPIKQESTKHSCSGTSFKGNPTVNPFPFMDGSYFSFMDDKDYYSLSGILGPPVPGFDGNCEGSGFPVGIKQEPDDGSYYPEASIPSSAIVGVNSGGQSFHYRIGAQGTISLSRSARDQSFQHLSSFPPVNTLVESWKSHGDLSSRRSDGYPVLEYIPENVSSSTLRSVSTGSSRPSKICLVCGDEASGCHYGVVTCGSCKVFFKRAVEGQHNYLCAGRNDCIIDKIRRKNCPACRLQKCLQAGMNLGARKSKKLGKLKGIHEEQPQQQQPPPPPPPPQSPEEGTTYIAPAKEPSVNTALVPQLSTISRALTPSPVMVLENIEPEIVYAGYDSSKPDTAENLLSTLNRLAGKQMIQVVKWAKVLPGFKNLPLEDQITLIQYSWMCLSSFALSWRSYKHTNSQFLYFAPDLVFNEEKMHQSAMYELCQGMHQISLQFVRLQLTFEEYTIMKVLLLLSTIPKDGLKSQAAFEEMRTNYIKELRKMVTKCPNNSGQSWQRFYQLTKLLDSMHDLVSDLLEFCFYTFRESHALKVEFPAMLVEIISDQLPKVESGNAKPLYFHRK
In words: [3H]-aldosterone displacement from human MR, ligand-receptor binding assay in transfected COS-7 cells. Particulars: 1 nM [3H]-aldosterone, increasing concentrations of unlabeled ligand, one-site model. On the procedure:
Ligand-receptor binding assays were performed as described before. Briefly, COS-7 cells were seeded on 24-well plates and transfected with plasmid pcDNA3-hMR. Twenty-four hours after transfection, cells were washed once with serum-free DMEM and incubated for 2 h in 500 μL of the same medium containing the indicated concentration of each compound. After this initial period, cells were further incubated with the indicated compounds and 1 × 10^−9 M [^3H]-aldosterone (PerkinElmer Life Sciences, Waltham, MA, USA) for one additional hour. Cells were then washed twice with phosphate-buffered saline (PBS: 137 mM NaCl, 2,7 mM KCl, 10 mM Na2HPO4, 1.8 mM KH2PO4, pH 7.4) and then extracted with 200 μL of an ethanol:water mix (4:1, v:v). Disintegrations were recorded using liquid scintillation in a β counter. Control conditions included non-transfected cells, transfected cells treated with unlabeled aldosterone or transfected cells, treated with 1 nM [^3H]-aldosterone in the presence of 1 × 10^−5 M unlabeled aldosterone. Specific binding was determined by subtracting the number of disintegrations per minute (dpm) in the presence of 1 × 10^−5 M unlabeled aldosterone from the condition with 1 nM [^3H]-aldosterone. Each condition was performed in triplicate. Competition of each compound for 1 nM [^3H]-aldosterone binding was calculated as the percentage of the maximum binding obtained in the absence of compound.

Assay [3] concerns the target T2, human MR (hMR). In words: MR gene reporter transactivation assay in transiently transfected COS-7 cells. In kind it is cell-based. The note with it: 1,4-DHP derivative 5 μM, 10 nM aldosterone stimulation. Here is the method: as §1, with “Assays using hMR included a control condition with 0.25 × 10^−6 M eplerenone.” left out

Regarding `COC(=O)C1=C(CNC(=O)OCc2ccccc2)NC(C)=C(C#N)C1c1ccc(C#N)cc1OC` (stereo not drawn) [Compound 16, Methyl 2-[(benzyloxycarbonyl)amino]methyl-5-cyano-4-(4-cyano-2-methoxy)phenyl-6-methyl-1,4-dihydropyridine-3-carboxylate], the “decrease of AR activation” value in assay [1] is given as 15%. In assay [2], the Ki worked out at 262 nM. Further, the “MR activity, % of the maximal activity” value in assay [3] is 57%.
